{"source": "patent US20170136008A1", "about": "“OXABICYCLOHEPTANES AND OXABICYCLOHEPTENES FOR THE TREATMENT OF OVARIAN CANCER” (priority 2014, published 2017)", "key": {"PP2A": {"target": "T1, PP2A (Homo sapiens, UniProt P67775)", "T1 construct": "endogenous in cells; host or cells: SKOV-3 ovarian cancer cells (lysate supernatant, assayed with the Millipore PP2A Phosphatase Assay Kit)", "T1 sequence (P67775 whole entry)": "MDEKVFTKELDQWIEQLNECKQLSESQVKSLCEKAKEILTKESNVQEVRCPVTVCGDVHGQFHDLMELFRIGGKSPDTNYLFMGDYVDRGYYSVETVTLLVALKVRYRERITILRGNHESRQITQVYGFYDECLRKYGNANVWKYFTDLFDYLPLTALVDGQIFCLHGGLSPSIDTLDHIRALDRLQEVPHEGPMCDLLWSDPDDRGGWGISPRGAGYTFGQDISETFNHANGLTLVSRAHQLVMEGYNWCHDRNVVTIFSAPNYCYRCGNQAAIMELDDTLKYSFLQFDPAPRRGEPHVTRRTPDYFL", "T1 sequence (P30153 2-589 partner limits assumed)": "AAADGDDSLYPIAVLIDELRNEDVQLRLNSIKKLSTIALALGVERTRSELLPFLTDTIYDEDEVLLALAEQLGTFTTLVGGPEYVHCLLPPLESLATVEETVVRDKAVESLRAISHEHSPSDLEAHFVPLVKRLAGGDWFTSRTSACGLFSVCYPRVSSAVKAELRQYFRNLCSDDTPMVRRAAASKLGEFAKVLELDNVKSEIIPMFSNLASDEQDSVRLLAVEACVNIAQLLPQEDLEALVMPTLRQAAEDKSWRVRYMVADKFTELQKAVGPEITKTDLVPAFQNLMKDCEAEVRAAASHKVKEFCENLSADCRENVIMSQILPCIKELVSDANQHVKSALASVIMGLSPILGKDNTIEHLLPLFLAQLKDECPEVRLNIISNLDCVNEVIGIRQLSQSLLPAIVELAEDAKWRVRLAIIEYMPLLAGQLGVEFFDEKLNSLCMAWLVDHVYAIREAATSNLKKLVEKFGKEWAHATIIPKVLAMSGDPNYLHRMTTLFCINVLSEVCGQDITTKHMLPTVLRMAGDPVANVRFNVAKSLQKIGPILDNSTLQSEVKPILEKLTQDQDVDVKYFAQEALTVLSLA", "experiment": "PP2A phosphatase activity assay", "type": "cell-based", "conditions": "cell lysate from SKOV-3 cells, 2 h treatment", "protocol": "Ovarian cancer cells were grown to 80% confluence in 100 mm dishes and treated with LB100 as indicated and prepared as described previously (Wei, D. et al. 2013). Following treatment for 2 h, cells were washed twice with cold PBS (pH7.4) and lysed in lysis buffer (20 mmol/L imidazole-HCL, 2 mmol/L EDTA, 2 mmol/L EGTA, pH 7.0) supplemented with protease inhibitors (Roche) for 30 minutes on ice. Cell lysates were sonicated for 10 s then centrifuged at 2,000×g for 5 min. Supernatants were assayed with the PP2A Phosphatase Assay Kit (Millipore, Billerica, Mass.) according to the manufacturer's instructions. Experiments were performed in triplicate, and the data are presented as a percent mean of relative PP2A activity compared to control ±SD."}, "[1]": {"test_system": "SKOV-3/f-Luc intraperitoneal xenografts", "experiment": "In vivo intraperitoneal ovarian cancer model", "design": "species or system mouse", "protocol": "Five- to seven-week-old female nude athymic mice (nu/nu) were obtained from NCI (Frederick, Md.), maintained in accredited animal facilities and used as stipulated by the U.S. Public Health Service Policy on Humane Care and Use of Laboratory Animals, in accordance with institutional reviews (http://oacu.odnih.gov). 10^6 SKOV-3/f-Luc cells were suspended in 100 μL PBS and injected into the intraperitoneal (i.p.) cavity. […] Following tumor inoculation, mice were dosed on days 4, 6, 8, 10, 12 and 14. Dose and treatment schedule were established based on the activity of each agent reported in previous studies (Wei, D. et al. 2013; Lu, J. et al. 2009; Mabuchi, S. et al. 2007). […] Tumor growth was measured twice a week via bioluminescence imaging (BLI) as previously described (Bakhsheshian, J. et al. 2013). D-Luciferin (150 mg/kg, 3 mg/100 μL PBS) was administered via I.P. injection. Relative intensity of the BLI signal for each mouse was calculated by dividing the total luminescence for each session by the total luminescence measured on day 1 of treatment. Mice were continuously observed until indicated euthanasia endpoints (e.g. significant weight loss, ascites). Toxicity of the treatment regimens was assessed by the degree of weight loss and the overall health status was continuously monitored by a veterinarian on staff. […] After 4 h, mice were euthanized and tumors were dissected from the intraperitoneal cavity, snap-frozen in liquid nitrogen, and lysed as described above.\nTumors were established in nude athymic female mice via i.p. injection of SKOV-3 cells transfected with firefly luciferase. […] Following the final treatment, mice were observed until pre-determined health concerns necessitated euthanization. Dose and treatment schedules were determined from biologic profiles of each agent determined in previous studies (Wei, D. et al. 2013; Lu, J. et al. 2009; Mabuchi, S. et al. 2009) and disease progression was monitored by BLI."}, "[2]": {"test_system": "SKOV-3 ovarian cancer cells", "experiment": "MTT cytotoxicity assay, SKOV-3", "type": "cell-based, human"}, "[3]": {"test_system": "ovarian cancer cell lines", "experiment": "MTT cytotoxicity assay, ovarian cancer cell line panel", "type": "cell-based", "conditions": "Homo sapiens, SK-OV-3; ovarian lines other than SKOV-3", "protocol": "Cell survival was measured by the 3-(4,5-dimethylthiazol-2-yl)-2,5-diphenyltetrazolium bromide (MTT, Invitrogen) assay. Cells were seeded at a density of 5,000 cells per well in 96-well plates and incubated at 37° C. in humidified 5% CO2 for 24 hours. The 50% inhibitory concentration (IC50) values were defined as the drug concentrations required to reduce cellular proliferation to 50% of the untreated control well. […] All MTT assays were carried out according to the manufacturer's instructions (Molecular Probes, Eugen, Oreg.). Absorbance values were determined at […] on a Spectra Max 250 spectrophotometer (Molecular Devices, Sunnyvale, Calif.). All MTT assays were performed in triplicate. […] Cells were treated with both drugs for 72 h. Cell viability was analyzed via the MTT assay as described above. Experiments were performed in triplicate, and the data are presented as a percent mean±SD.\nSKOV-3 and OVCAR-8 cells have previously been described as p53 null and harboring an inactivating p53 mutation, respectively (Debernardis, D. et al. 1997). […] The […] carry a BRCA2 missense (n) and STOP (s) mutation, respectively (Langdon, S. P. et al. 1988)."}, "SKOV-3 cells": {"test_system": "SKOV-3 cells", "experiment": "Cell-cycle analysis (FACS), SKOV-3", "type": "cell-based, human", "protocol": "For cell-cycle analysis, cells were washed with PBS and fixed overnight in ice-cold 70% ethanol and stored at 4° C. Cells were then centrifuged and resuspended in 100 U RNAse (Sigma-Aldrich), and incubated at 37° C. for 20 min. Propidiumidodide solution (Invitrogen, 500 μL, 50 μg/mL in DPBS) was added to each tube and incubated in the dark at 4° C. overnight. Flow cytometry analysis was performed with CellQuestPro and data analysis was completed with ModFit LT. All data is in triplicate and presented as a percent mean±SD."}}, "data": [{"molecule": "CN1CCN(C(=O)C2C(C(=O)O)[C@H]3CC[C@@H]2O3)CC1", "note": "(stereo partly shown) [LB100]", "values": [{"measurement": "PP2A enzymatic function", "setting": "PP2A", "value": "concentration-dependent decrease"}, {"measurement": "day by which massive ascites developed, necessitating euthanasia", "setting": "[1]; LB100 alone 1.5 mg/kg i.p.", "value": "≤ 25", "unit": "days"}, {"measurement": "tumor growth as assessed by BLI", "setting": "[1]; LB100 alone 1.5 mg/kg i.p.", "value": "did not alter tumor growth"}, {"measurement": "relative intensity of BLI signal (vs day 1 of treatment)", "setting": "[1]; day 25, each drug 1.5 mg/kg i.p., 6 doses every other day, LB100 1 h before cisplatin in combination", "value": "12.4±6.7"}, {"measurement": "IC50", "setting": "[2]; Homo sapiens, SK-OV-3, SK-OV3, MTT, read-out: IC50, viability of ovarian cancer cell line", "value": "10.1 ± 1.6", "unit": "µM"}, {"measurement": "fold less sensitive compared to the other ovarian lines", "setting": "[2]; SKOV-3 vs other ovarian lines", "value": 2, "unit": "fold"}, {"measurement": "IC50", "setting": "[3]", "value": 5.7, "unit": "µM"}, {"measurement": "G1 (%)", "setting": "SKOV-3 cells; 24 h, LB100 5 μM", "value": "51.4 ± 1.5", "unit": "%"}, {"measurement": "G2/M (%)", "setting": "SKOV-3 cells; 24 h, LB100 5 μM", "value": "28.9 ± 1.2", "unit": "%"}, {"measurement": "S (%)", "setting": "SKOV-3 cells; 24 h, LB100 5 μM", "value": "19.7 ± 0.8", "unit": "%"}, {"measurement": "G1 (%)", "setting": "SKOV-3 cells; 48 h, LB100 2 μM", "value": "49.8 ± 0.5", "unit": "%"}, {"measurement": "G2/M (%)", "setting": "SKOV-3 cells; 48 h, LB100 2 μM", "value": "25.1±0.8", "unit": "%"}, {"measurement": "S (%)", "setting": "SKOV-3 cells; 48 h, LB100 2 μM", "value": "25.1 ± 0.3", "unit": "%"}, {"measurement": "G1 (%)", "setting": "SKOV-3 cells; 48 h, LB100 5 μM", "value": "47.2 ± 1.9", "unit": "%"}, {"measurement": "G2/M (%)", "setting": "SKOV-3 cells; 48 h, LB100 5 μM", "value": "25.1 ± 0.8", "unit": "%"}, {"measurement": "S (%)", "setting": "SKOV-3 cells; 48 h, LB100 5 μM", "value": "30.2 ± 3.1", "unit": "%"}, {"measurement": "G1 (%)", "setting": "SKOV-3 cells; 48 h, LB100 10 μM", "value": "36.8 ± 1.8", "unit": "%"}, {"measurement": "G2/M (%)", "setting": "SKOV-3 cells; 48 h, LB100 10 μM", "value": "32.1±1.6", "unit": "%"}, {"measurement": "S (%)", "setting": "SKOV-3 cells; 48 h, LB100 10 μM", "value": "31.1 ± 0.8", "unit": "%"}, {"measurement": "G1 (%)", "setting": "SKOV-3 cells; 48 h, LB100 15 μM", "value": "42.3 ± 1.6", "unit": "%"}, {"measurement": "G2/M (%)", "setting": "SKOV-3 cells; 48 h, LB100 15 μM", "value": "33.9±1.4", "unit": "%"}, {"measurement": "S (%)", "setting": "SKOV-3 cells; 48 h, LB100 15 μM", "value": "23.8 ± 0.2", "unit": "%"}]}]}
